The values that follow come from publication PMC3922101 (Osong Public Health and Research Perspectives, 2013).

Holding throughout (type): biochemical, influenza A/Chungbuk/4448/2008(H1N1) virus
Experiment [1] deals with neuraminidase (NA) of recombinant virus Chungbuk-Y275-E119V (Influenza A virus, UniProt E3JK96, E119V).
The target of experiment [2] is neuraminidase (NA) of recombinant virus Chungbuk-Y275H-N295S-I117M (Influenza A virus (A/Chungbuk/4448/2008(H1N1)), UniProt E3JK96, I117M/N295S/Y275H).
Experiment [3] deals with neuraminidase (NA) of recombinant virus Chungbuk-Y275-N295S-I223V (Influenza A virus, UniProt E3JK96, I223V/N295S).
The target in experiment [4] is neuraminidase (NA) of recombinant virus Chungbuk-Y275-N295S-I117M (Influenza A virus, UniProt E3JK96, I117M/N295S).
Experiment [5] relates to NA of all the single, double, and triple mutants containing the E119V mutation.
For experiment [6], the system named is NA of all the single and double mutants containing tyrosine (Y) at NA residue 275 except Chungbuk-Y275-E119V.
In experiment [7] the target is neuraminidase (NA) of recombinant virus Chungbuk-Y275H-N295S-I223V (Influenza A virus (A/Chungbuk/4448/2008(H1N1)), UniProt E3JK96, I223V/N295S/Y275H).
In experiment [8] the target is neuraminidase (NA) of recombinant virus Chungbuk-Y275H-N295S-I117V (Influenza A virus (A/Chungbuk/4448/2008(H1N1)), UniProt E3JK96, I117V/N295S/Y275H).
Experiment [9] has as its target neuraminidase (NA) of recombinant virus Chungbuk-Y275H-E119V (Influenza A virus, UniProt E3JK96, E119V/Y275H).

In the case of `CC(=O)N[C@H]1[C@H]([C@H](O)[C@H](O)CO)OC(C(=O)O)=C[C@@H]1N=C(N)N` [Zanamivir], the NAI resistance phenotype result in experiment [1] is on record as “important levels of resistance”; in [2] it was “susceptible”; in [3], “susceptible”; in experiment [4], “susceptible”; in [5], “resistance”; in [6], “susceptibility”. The NAI resistance phenotype entry in experiment [7] is recorded as “susceptible”; in experiment [8], “susceptible”; in experiment [9], “important levels of resistance”.
